We go through two molecules from patent US9222093B2, “Two-way, portable riboswitch mediated gene expression control device” (THE UNIVERSITY OF HONG KONG, priority 2011, dated 2015).

Test [1] concerns the target T1, LacI repressor protein (Escherichia coli, UniProt P03023).
T1 construct: ON-lacI riboswitch 302 was incorporated into the chromosome upstream from intact lad gene (i.e., not fused with lacZ); endogenous in cells; host or cells: E. coli MG1655 derivative with ON-lacI riboswitch on the chromosome and intact lacZ locus
The test is described as follows: β-galactosidase assay of lacZ in cells carrying ON-lacI riboswitch and intact lacZ (IPTG arm of two-way control). In kind it is cell-based, E. coli MG1655. The settings on record: medium containing 1600 μM theophylline. From the text:
(§1) The loxP-cat-loxP selectable cassette was inserted immediately after the stop codon of the lacZ gene on the MG1655 chromosome using recombineering methods. Next, the lacZ-loxP-cat-loxP cassette was PCR amplified and inserted (in frame) immediately prior to the stop codon of the target gene on the chromosome. The inserted lacZ fragment started from the 8th codon of the lacZ gene, and was co-transcribed and translated with the fused genes. The expression of gene-lacZ fusions was quantified using a β-galactosidase assay. Levels of β-galactosidasewere calculated using the following formula: units (U)=[…]
ON-lacI riboswitch 302 makes two-way gene regulation possible because the Lad repressor protein can be inactivated by isopropyl β-D-1-thiogalactopyranoside (IPTG). Thus, adding theophylline to the culture medium switches on lacI translation, and transcriptionally represses the target genes of LacI. In contrast. IPTG inactivates LacI by binding to the protein and derepresses transcription of the target genes.
Two-way control was verified by determining β-galactosidase levels of the cells carrying both ON-lacI riboswitch 302 and an intact lacZ gene locus. Theophylline and IPTG regulated lacZ in opposite directions in a concentration-dependent manner (graph 312, FIG. 3D). The effective concentration range of theophylline was 100-1600 μM. […]

In test [2] the test system is rpoS gene locus. The test is described as follows: Acid survival of ON-lacI-rpoS strain (pH 2.0, 2 hours). The test is classed as cell-based, E. coli. From the text: The ON-lacI-LacIbs cassette (2500 bp) from the genome of the strain carrying the ON riboswitch of lacI is amplified using […]. Cassette 602 is composed of the cat gene, the ON-lacI riboswitch, the lacI gene, and the lacI-lacZ intergenic region containing two LacIbs. The cat gene facilitates integration of this cassette immediately upstream of any target gene via recombineering. The riboswitch cassette was inserted upstream of the ribosomal binding site of rpoS gene locus […] (FIG. 6A). Next, the native lacI was deleted from this strain, generating a new mutant strain, ON-lacI-rpoS. This strain was used to test whether rpoS gene locus 606 could be controlled by the theophylline-responsive and LacI-repressible regulation cassette 602. Since rpoS is required for acid resistance, survival of strain […] under acidic conditions was assayed. Overnight cultures were treated with acid (pH 2.0) for 2 hours, and then serially diluted in neutral medium. After culturing overnight, colony forming units (CFU) of acid-treated and untreated cells were determined Acid survival (%) was calculated using the formula: Acid survival (%)=100×(CFU of treated/CFU of untreated).

Test [3] concerns CsrB locus. Briefly: Autoaggregation and biofilm formation of ON-lacI strain harboring pLacIb-CsrB. In kind it is cell-based, E. coli. An excerpt:
CsrB locus 706 has previously been cloned into a high copy vector (plasmid) 704. Two LacIbs 112 were inserted around the transcriptional start site to place expression of CsrB locus 706 under the control of ON-lacI riboswitch 302. Since one LacIb is after the transcriptional start site, the resulting CsrB differs slightly from the native one by the extra 21 nt-sequence (i.e. LacIb). […] This CsrB-carrying vector 704 was introduced into the ON-lacI strain, and autoaggregation and biofilm formation were examined.
To measure autoaggregation, overnight cultures were diluted 1:500 and incubated at 37° C., with shaking at 220 rpm, in liquid LB medium. When cells aggregated (visualized macroscopically by the clumping or ‘fluffing’ of cells in liquid cultures), 100 μl of each cell suspension was transferred to flat-bottom 96-well plates (Iwaki, Tokyo, Japan) and the images of the cell aggregates were captured by scanning. To better visualize the cell aggregates, 1 μl of crystal violet (0.1%) was added to each cell suspension immediately prior to image capture. Cellular autoaggregation was also examined microscopically. Cell suspensions were spread on a microscope slide, heat-fixed, stained with DAPI (4′6-diamidino-2-phenylindol), and imaged using a fluorescence stereomicroscope SZX12 (Olympus, Tokyo, Japan) with DAPI filter sets.
Biofilms were formed on polystyrene, flat-bottom 96-well microtiter plates (Iwaki, Tokyo, Japan). 200 μl of each cell suspension (10^5 cells/ml) was transferred into each well of a microtiter plate, and incubated for 24 h at 37° C. in a shaker at 75 rpm. Resulting biofilms were washed thrice with PBS and air dried. Then, biofilms were stained with […] of 0.4% aqueous crystal violet solution for 15 min. Next, biofilms were washed three times with sterile distilled water and immediately destained with 200 μl of 95% ethanol. After 30 min of destaining, 100 μl of destaining solution was transferred to a new well and measured with a microtiter plate reader (SpectraMAX®340 Tunable Microplate Reader; Molecular Devices Ltd.) at 595 nm.

The subject of test [4] is ON-lacI-rpoS cells. The test is described as follows: Extracellular acetate assimilation. The test is classed as cell-based, E. coli. An excerpt:
(§2) Bacterial cells switch from rapid growth during which they produce and excrete acetate (dissimilation) in the presence of abundant nutrients to slower growth supported by the import and utilization of the excreted acetate (assimilation) when glucose is exhausted. This physiological event is defined as an acetate switch, a survival response allowing cells to compete successfully during carbon starvation. It was previously reported that RpoS positively regulates consumption of acetate by activating the expression of acetyl-coenzyme A synthetase enzyme (Acs). However, the opposite results were obtained with ON-lacI-rpoS construction provided herein. […] When grown in the presence of theophylline (2 mM) and absence of IPTG, rpoS expression was shut off and accordingly, acetate assimilation was accelerated (FIG. 8A). […] The enhanced acetate assimilation was also observed with the newly constructed rpoS gene locus null mutant, shown in graph 804 (FIG. 8B). […] It is therefore apparent that RpoS represses acetate assimilation.

In test [5] the test system is wild type strain. Briefly: Extracellular acetate assimilation, wild type strain. The test is classed as cell-based, E. coli. As to conditions: data not shown.
Excerpt: as §2

Test [6] deals with ON-lacI riboswitch. Briefly: β-galactosidase assay of lacZ in cells carrying ON-lacI riboswitch and intact lacZ (theophylline arm of two-way control). In kind it is cell-based, E. coli MG1655.
Excerpt: as §1
ON-lacI riboswitch 302 was incorporated into the chromosome upstream from intact lad gene (i.e., not fused with lacZ). The LacI protein represses expression of lacZ so that ON riboswitch 302 indirectly switches off lacZ in response to theophylline.
Two-way control was verified by determining β-galactosidase levels of the cells carrying both ON-lacI riboswitch 302 and an intact lacZ gene locus. Theophylline and IPTG regulated lacZ in opposite directions in a concentration-dependent manner (graph 312, FIG. 3D). The effective concentration range of theophylline was 100-1600 μM. […] When IPTG was added to the medium containing 1600 μM theophylline, lacZ was derepressed. The effective range of IPTG was 0.16-40 μM.

Test [7] has as its system lacI-lacZ fusion. The test is described as follows: β-galactosidase assay of lacI-lacZ translational fusion. The test is classed as cell-based, E. coli MG1655. As to conditions: E. coli mutant containing ON-lacI riboswitch; with vs without theophylline.
Excerpt: as §1
To engineer an ON-riboswitch of the lacI gene, riboswitch cassette 302, cat-aptamer-linker-random sequence, was integrated upstream of the ribosomal binding site of lacI-lacZ usion 304 on the chromosome using standard recombineering methods (FIG. 3A).
The resulting mutant collection was grown on X-gal plates 306 in the absence of theophylline. Approximately 2000 colonies were screened for color. Two white clones were identified. […]

In test [8] the test system is ON-crp strain. Briefly: Motility of ON-crp strain on semisolid motility plates. In kind it is cell-based, E. coli MG1655. As to conditions: theophylline ligand added; increased with higher theophylline concentrations. The protocol: The motility phenotype of the ON-crp strain was assayed to further confirm the effectiveness of the ON-riboswitch.
[9] abbreviates: in the presence of theophylline.

T1 sequence (P03023 whole entry, the tested form may be a part): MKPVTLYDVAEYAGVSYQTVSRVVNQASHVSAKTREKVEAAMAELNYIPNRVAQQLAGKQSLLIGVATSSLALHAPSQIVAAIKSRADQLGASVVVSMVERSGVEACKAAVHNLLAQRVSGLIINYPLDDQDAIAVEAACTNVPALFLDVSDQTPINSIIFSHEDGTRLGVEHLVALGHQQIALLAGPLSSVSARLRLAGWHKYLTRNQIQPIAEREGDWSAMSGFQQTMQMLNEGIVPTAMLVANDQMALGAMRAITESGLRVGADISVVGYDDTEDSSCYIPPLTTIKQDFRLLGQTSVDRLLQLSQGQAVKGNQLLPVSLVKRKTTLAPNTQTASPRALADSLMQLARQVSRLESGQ

`CC(C)S[C@@H]1O[C@H](CO)[C@H](O)[C@H](O)[C@H]1O` [IPTG, isopropyl β-D-1-thiogalactopyranoside]: the “effective range of IPTG (lacZ derepression)” value in test [1] lay in the range of 0.16 to 40 µM. Moreover, the acid survival entry in test [2] (40 μM IPTG in medium containing 1600 μM theophylline) is listed as “restored to the wild-type levels”. Moreover, the “autoaggregation and biofilm formation” value in test [3] (IPTG added together with theophylline) was “restored”. Moreover, the acetate assimilation result in test [4] (IPTG 1 mM added to the theophylline medium) is “restored to the wild-type levels”. The “effect on acetate assimilation in the wild type strain” value in test [5] is on record as “Neither theophylline nor IPTG had any effect”.
For `Cn1c(=O)c2[nH]cnc2n(C)c1=O` [theophylline], in test [6] (ON-lacI combined with LacIbs upstream from lacZ), the “lacZ expression in the presence of theophylline” value was “almost completely repressed”. For the same molecule, in test [6] (cells carrying ON-lacI riboswitch and intact lacZ, repression, saturation above the range), the “effective concentration range of theophylline (lacZ regulation)” value was 100 to 1600 µM. In addition, the “lacZ regulation at theophylline concentrations less than 100 μM” value in test [6] (theophylline less than 100 μM) is “little regulation”. Besides, the “LacI levels in the presence of the ligand” value in test [7] is on record as “one fold-increase”. Also, in test [2] (1600 μM theophylline), the acid survival entry is given as “comparable to that of an rpoS null mutant”. In addition, in test [8], the motility entry is listed as “gained motility”. Further, in test [3] (setting [9]), the autoaggregation entry is on record as “negative with respect to autoaggregation” and the biofilm formation entry is “low levels of biofilms”. In addition, the acetate assimilation entry in test [4] (theophylline 2 mM, absence of IPTG) is “accelerated”. Also, the “effect on acetate assimilation in the wild type strain” value in test [5] is “Neither theophylline nor IPTG had any effect”.
